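Growth conditions: 96-well plates. Treatment: test compound, 48 hours, 5 concentrations. Analysis: linear interpolation between bracketing concentrations; unreached endpoints set to highest concentration. At the GI50, growth is halved.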 Calls of active or inactive are those of the source. Rule as the data show it: active = GI50 up to about 1.1 µM and inactive = higher.
Key:
Assay in all cases: inhibition of tumour cell growth, NCI panel, 48 h
RXF 393 = system: RXF 393
CAKI-1 = system: CAKI-1
NCI-H522 = system: NCI-H522
786-0 = system: 786-0
MOLT-4 = system: MOLT-4
NCI-H23 = system: NCI-H23
HOP-62 = system: HOP-62
NCI-H226 = system: NCI-H226
OVCAR-3 = system: OVCAR-3
TK-10 = system: TK-10
CCRF-CEM = system: CCRF-CEM
LOX IMVI = system: LOX IMVI
SNB-78 = system: SNB-78
UACC-62 = system: UACC-62
SN12C = system: SN12C
KM12 = system: KM12
MCF7 = system: MCF7
NCI/ADR-RES = system: NCI/ADR-RES
MDA-N = system: MDA-N
DU-145 = system: DU-145

Structure (SMILES) | GI50 (RXF 393) | GI50 (CAKI-1) | GI50 (NCI-H522) | GI50 (786-0) | GI50 (MOLT-4) | GI50 (NCI-H23) | GI50 (HOP-62) | GI50 (NCI-H226) | GI50 (OVCAR-3) | GI50 (TK-10) | GI50 (CCRF-CEM) | GI50 (LOX IMVI) | GI50 (SNB-78) | GI50 (UACC-62) | GI50 (SN12C) | GI50 (KM12) | GI50 (MCF7) | GI50 (NCI/ADR-RES) | GI50 (MDA-N) | GI50 (DU-145)
COc1ccc(S(=O)(=O)N[C@H](C(=O)O)c2ccccc2)cc1 | > 100 µM (inactive) | > 100 µM (inactive) | > 10 µM (inactive) | > 100 µM (inactive) | > 100 µM (inactive) | > 100 µM (inactive) | > 100 µM (inactive) | > 100 µM (inactive) | > 100 µM (inactive) | > 100 µM (inactive) | > 100 µM (inactive) | > 100 µM (inactive) | > 100 µM (inactive) | > 100 µM (inactive) | > 100 µM (inactive) | > 100 µM (inactive) | – | – | – | –
CCN(CC)CC(O)CNc1ccc(NCC(O)CCl)c2c1C(=O)c1ccccc1C2=O (configuration not stated) | 12.6 µM (inactive) | 8.67 µM (inactive) | 4.47 µM (inactive) | 2.98 µM (inactive) | 0.484 µM (active) | 6.67 µM (inactive) | 10.9 µM (inactive) | 9.95 µM (inactive) | 6.78 µM (inactive) | 12.1 µM (inactive) | 1.06 µM (active) | 0.478 µM (active) | 6.7 µM (inactive) | 14.4 µM (inactive) | 4.95 µM (inactive) | 4.15 µM (inactive) | 1.56 µM (inactive) | 2.45 µM (inactive) | 5.19 µM (inactive) | 13.4 µM (inactive)
CCNCCCCNCCCCNCCCCNCCCCNCC | 27.7 µM (inactive) | 10.4 µM (inactive) | > 100 µM (inactive) | 34.8 µM (inactive) | > 79.6 µM (inactive) | 9.08 µM (inactive) | 26.4 µM (inactive) | > 100 µM (inactive) | > 100 µM (inactive) | 29.7 µM (inactive) | 63.5 µM (inactive) | 32 µM (inactive) | > 100 µM (inactive) | 14.4 µM (inactive) | > 95.1 µM (inactive) | 76.6 µM (inactive) | > 100 µM (inactive) | > 100 µM (inactive) | 12.3 µM (inactive) | > 100 µM (inactive)
COC1(OC)C2(Cl)C(Cl)=C(Cl)C1(Cl)C1c3ccc(C(C)=O)c4cccc(c34)C12 (configuration not stated) | 27.7 µM (inactive) | > 37.4 µM (inactive) | 13.3 µM (inactive) | 45.7 µM (inactive) | 5.47 µM (inactive) | 7.16 µM (inactive) | 63.4 µM (inactive) | 17 µM (inactive) | 26.3 µM (inactive) | 71 µM (inactive) | 13.8 µM (inactive) | 22.5 µM (inactive) | 28.3 µM (inactive) | 23.5 µM (inactive) | 10.6 µM (inactive) | 11.7 µM (inactive) | 5.5 µM (inactive) | 36.6 µM (inactive) | 14.8 µM (inactive) | 26.2 µM (inactive)
CCOC(=O)C(=O)Nc1ccc(C)cc1C | > 100 µM (inactive) | > 100 µM (inactive) | > 100 µM (inactive) | > 100 µM (inactive) | > 100 µM (inactive) | > 100 µM (inactive) | > 100 µM (inactive) | > 100 µM (inactive) | > 100 µM (inactive) | > 100 µM (inactive) | > 100 µM (inactive) | > 100 µM (inactive) | > 100 µM (inactive) | > 100 µM (inactive) | > 100 µM (inactive) | > 100 µM (inactive) | – | – | – | –
S=c1[nH]nc(Cc2ccccc2)c(=S)[nH]1 | 32.8 µM (inactive) | > 54.8 µM (inactive) | > 51.1 µM (inactive) | > 100 µM (inactive) | > 59.7 µM (inactive) | > 64.4 µM (inactive) | > 75 µM (inactive) | > 95.3 µM (inactive) | > 61.7 µM (inactive) | > 56 µM (inactive) | > 100 µM (inactive) | > 52.7 µM (inactive) | > 100 µM (inactive) | > 25.9 µM (inactive) | 65.3 µM (inactive) | > 79.8 µM (inactive) | 55.8 µM (inactive) | 49.4 µM (inactive) | 98.6 µM (inactive) | 61.9 µM (inactive)
CCC/C(=N\NC(=S)N1CC2CCC(CC2)C1)c1ccccn1 | 0.51 µM (active) | 1.21 µM (inactive) | 0.282 µM (active) | 0.438 µM (active) | 0.0179 µM (active) | 0.422 µM (active) | 0.713 µM (active) | 1.82 µM (inactive) | 0.254 µM (active) | 0.977 µM (active) | 0.0186 µM (active) | 0.542 µM (active) | 0.344 µM (active) | 0.0479 µM (active) | 0.395 µM (active) | 0.144 µM (active) | 0.042 µM (active) | – | 0.685 µM (active) | 1.49 µM (inactive)
N#Cc1cc([N+](=O)[O-])ccc1NC(=O)C(=O)C(C(=O)c1ccc2ccccc2c1)C1OCc2ccccc21 (configuration not stated) | 3.73 µM (inactive) | 9.4 µM (inactive) | 7.29 µM (inactive) | 6.28 µM (inactive) | 2.18 µM (inactive) | 4.5 µM (inactive) | 6.65 µM (inactive) | 1.68 µM (inactive) | 3.06 µM (inactive) | 22.3 µM (inactive) | 3.92 µM (inactive) | 7.19 µM (inactive) | 3.93 µM (inactive) | 7.46 µM (inactive) | 13.7 µM (inactive) | 15.4 µM (inactive) | – | – | – | –
Cc1nc(N)c(-c2ccccc2)s1 | > 48.2 µM (inactive) | > 92.7 µM (inactive) | 42.7 µM (inactive) | 77.6 µM (inactive) | > 76.7 µM (inactive) | > 100 µM (inactive) | > 100 µM (inactive) | > 100 µM (inactive) | > 92 µM (inactive) | > 100 µM (inactive) | 36.5 µM (inactive) | 52.4 µM (inactive) | 68.4 µM (inactive) | > 72.1 µM (inactive) | 81.3 µM (inactive) | > 74.6 µM (inactive) | – | – | – | –
CC[C@H]1CN2CCc3cc(OC)c(OC)cc3[C@@H]2C[C@@H]1C[C@H]1NCCc2c1[nH]c1ccc(O)cc21 [TUBULOSINE] | 0.016 µM (active) | – | < 0.01 µM (active) | < 0.01 µM (active) | < 0.01 µM (active) | < 0.0113 µM (active) | < 0.01 µM (active) | < 0.0113 µM (active) | 0.0276 µM (active) | 0.0388 µM (active) | < 0.01 µM (active) | < 0.01 µM (active) | 0.0136 µM (active) | 0.0182 µM (active) | < 0.01 µM (active) | 0.0246 µM (active) | < 0.01 µM (active) | 1.73 µM (inactive) | < 0.01 µM (active) | < 0.01 µM (active)
